Measurements as given in PMC8962522, “Direct interaction of TrkA/CD44v3 is essential for NGF-promoted aggressiveness of breast cancer cells” (Journal of Experimental & Clinical Cancer Research : CR, 2022).
“Also recorded” adds a separate entry of the source.

Key:
[1] = system: SUM-159-PT cells; assay: Scratch/wound migration assay, SUM-159-PT; type: cell-based; details: 24 h after treatment; Supplementary Fig. 9 C & D; effects as in MDA-MB-231 (inhibition of NGF-induced migration)
[2] = system: RhoA in MDA-MB-231 cells; assay: AB-FRET RhoA activation, MDA-MB-231 with RhoA biosensor; type: cell-based
Protocol: MDA-MB-231 native or KD cells were seeded (5000 cells/well; ovn, 37 °C) in a chambered coverglass system (Lab-Tek®) coated with a type I collagen matrix (100 μg/mL; Corning). These cells were transfected using the pBabe-puro-RhoA plasmid (0.15 μg; Addgene plasmid #12602) diluted in a buffer solution (JetOPTIMUS® buffer) and a transfection agent (TA; 10 min). The mixture was incorporated into the culture medium (4 h; 37 °C). Two to three hours before image acquisition, the cells expressing the RhoA biosensor were starved in fresh EMEM containing 0.1% FBS and no phenol red. […]
To further elucidate the mechanism of action of CD44v3 mimetic peptide 4, we studied its effect on the TrkA signaling pathway. […] Additionally, to confirm that this effect was independent of TrkA phosphorylation, we measured RhoA activation in MDA-MB-231 cells expressing dead TrkA kinase, which cannot be phosphorylated (Fig. 5D). […]
Fig. 5 CD44v3 is implicated in the phospho-TrkA-independent activation of RhoA GTPase. Phosphorylation of TrkA was measured in the presence of a scramble peptide or CD44v3 mimetic peptide 4 (P4) in the presence or absence of NGF (A). […] Phosphorylation of TrkA and downstream Akt in wild-type MDA-MB-231 and MDA-MB-231 cells expressing kinase-dead TrkA, as determined by western blotting (D). […]

**Q.** Which results are given for “IDDDEDFISST [Peptide 4, mimetic peptide 4 (…) corresponding to the C-terminal region of CD44v3]”?
**A.** effect on migration of SUM-159-PT cells [1]: We also confirmed the effects of CD44v3 mimetic peptide 4 on migration in SUM-159-PT cells; Mean donor peak (AB-FRET, RhoA activation), with NGF [2]: 1.23; NGF-induced FRET signal (RhoA activity), in words ([2]; statement: NGF increased the signal with scramble peptide, not with peptide 4, listed as CD44v3 mimetic peptide 4): NGF increased the FRET signal in the presence of the scramble peptide but not with CD44v3 mimetic peptide 4; also recorded: inhibits TrkA phosphorylation-independent RhoA activation induced by NGF
